Data as given in US20070032477A1, “Pteridine derivatives useful for making pharmaceutical compositions” (priority 2003, published 2007).

Assays:
[1] = tested on: production of TNF-α by PBMC in response to stimulation by LPS; assay: TNF-α assay; type: cell-based, human; details: LPS 1 μg/ml, 72 hours, sandwich ELISA
Description: Peripheral blood mononuclear cells (herein referred as PBMC), in response to stimulation by lipopolysaccharide (hereinafter LPS), a gram-negative bacterial endotoxin, produce various […], in particular human TNF-α. Inhibition of the activation of PBMC can therefore be measured by the level of suppression of the production of TNF-α by PBMC in response to stimulation by LPS.
Such inhibition measurement was performed as follows: PBMC were isolated from heparinized peripheral blood by density gradient centrifugation over Lymphoprep (commercially available from Nycomed, Norway). LPS was then added to the PMBC suspension in complete medium (10^6 cells/ml) at a final concentration of 1 μg/ml. The pteridine derivative to be tested was added at different concentrations (0.1 μM, 1 μM and 10 μM) and the cells were incubated at 37° C. for 72 hours in 5% CO2. The supernatants were collected, then TNF-α concentrations were measured with respectively an anti-TNF-α antibody in a sandwich ELISA (Duo Set ELISA human TNFα, commercially available from R&D Systems, United Kingdom). The calorimetric reading of the ELISA was measured by a Multiskan RC plate reader (commercially available from ThermoLabsystems, Finland) at 450 nm (reference wavelength: 690 nm). Data analysis was performed with Ascent software 2.6. (also from ThermoLabsystems, Finland): a standard curve (recombinant human TNFα) was drawn and the amount (pg/ml) of each sample on the standard curve was determined.
The % suppression of human TNFα production by the pteridine derivatives of the invention (drugs) was calculated using the formula: [formula]

[2] = tested on: mixed lymphocyte reaction (PBMC with allogeneic PBMC or Eppstein-Barr Virus-transformed human B cells as stimulator cells); assay: Mixed lymphocyte reaction (MLR) assay; type: cell-based; details: lowest concentration giving 50% suppression of the MLR; [3H]-thymidine
Description: Pteridine derivatives were first dissolved (10 mM) in dimethylsulfoxide (hereinafter referred as DMSO) and further diluted in culture medium before use for the following in vitro experiments. The commercially available culture medium consisted of RPMI-1640+10% foetal calf serum (FCS). Some pteridine derivatives described in the previous examples (as indicated in table 1) were tested in the following mixed lymphocyte reaction (MLR) assay.
Peripheral blood mononuclear cells (hereinafter referred as PBMC) were isolated from heparinized peripheral blood by density gradient centrifugation over Lymphoprep (Nycomed, Maorstua, Norway). Allogeneic PBMC or Eppstein-Barr Virus-transformed human B cells [commercially available under the trade name RPM11788 (ATCC name CCL156)] which strongly express B7-1 and B7-2 antigens were used as stimulator cells after irradiation with 30 Gy. MLR was performed in triplicate wells. After 5 days incubation at 37° C., 1 μCi [^3H]-thymidine was added to each cup. After a further 16 hours incubation, cells were harvested and counted in a […]. Inhibition of proliferation by a compound (drug) described in some of the previous examples was counted using the formula: [formula] wherein cpm is the thymidine count per minute. The MLR assay is regarded by those skilled in the art as an in vitro analogue of the transplant rejection since it is based on the recognition of allogeneic major histocompatibility antigens on the stimulator leukocytes, by responding lymphocytes.

Row | Structure (SMILES) | IC50 [1] | IC50 [2]
1 | COc1ccc(-c2cnc3nc(N)nc(N4CCN(C(=O)c5cccs5)CC4)c3n2)cc1OC [Example 13, 2-amino-4-[(N-2-thiophenecarbonyl)-piperazin-1-yl]-6-(3,4-dimethoxy-phenyl)pteridine] | 80 nM | 100 nM
2 | CCN(CC)C(=O)N1CCN(c2nc(N)nc3ncc(-c4ccc(OC)c(OC)c4)nc23)CC1 [Example 14, 2-amino-4-[(N-diethylcarbamoyl)-piperazin-1-yl]-6-(3,4-dimethoxy-phenyl)pteridine] | 60 nM | 200 nM
3 | COc1ccc(-c2cnc3nc(N)nc(N4CCN(C(=O)c5ccc(C#N)cc5)CC4)c3n2)cc1OC [Example 16, 2-amino-4-[N-(4-cyanobenzoyl)-piperazin-1-yl]-6-(3,4-dimethoxyphenyl)pteridine] | 550 nM | 800 nM
4 | CCCCc1ccc(C(=O)N2CCN(c3nc(N)nc4ncc(-c5ccc(OC)c(OC)c5)nc34)CC2)cc1 [Example 18, 2-amino-4-[(N-4-butylbenzoyl)-piperazin-1-yl]-6-(3,4-dimethoxyphenyl)pteridine] | 90 nM | 300 nM
5 | COc1ccc(-c2cnc3nc(N)nc(N4CCN(C(=O)c5ccncc5)CC4)c3n2)cc1OC [Example 19, 2-amino-4-[(N-isonicotinoyl)-piperazin-1-yl]-6-(3,4-dimethoxyphenyl)pteridine] | 60 nM | 2400 nM
6 | COc1cccc(C(=O)N2CCN(c3nc(N)nc4ncc(-c5ccc(OC)c(OC)c5)nc34)CC2)c1 [Example 26, 2-amino-4-[N-(3-methoxybenzoyl)piperazin-1-yl]-6-(3,4-dimethoxy-phenyl)pteridine] | 500 nM | 500 nM
7 | COc1ccc(-c2cnc3nc(N)nc(N4CCN(C(=O)c5ccco5)CC4)c3n2)cc1OC [Example 27, 2-amino-4-[N-(2-furoyl)-piperazin-1-yl]-6-(3,4-dimethoxyphenyl)pteridine] | 500 nM | 80 nM
8 | COc1ccc(-c2cnc3nc(N)nc(N4CCN(C(=O)COCc5ccccc5)CC4)c3n2)cc1OC [Example 28, 2-amino-4-[(N-benzyloxyacetyl)-piperazin-1-yl]-6-(3,4-dimethoxyphenyl)pteridine] | 500 nM | 30 nM
9 | COc1ccc(-c2cnc3nc(N)nc(N4CCN(C(=O)COc5ccc(Cl)cc5)CC4)c3n2)cc1OC [Example 29] | 77 nM | 0.5 nM
10 | COc1ccc(-c2cnc3nc(N)nc(N4CCN(C(=O)C5CCCCC5)CC4)c3n2)cc1OC [Example 30, 2-amino-4-[(N-cyclohexylcarbonyl)-piperazin-1-yl]-6-(3,4-dimethoxy-phenyl)pteridine] | 300 nM | 100 nM
11 | COc1ccc(-c2cnc3nc(N)nc(N4CCN(S(=O)(=O)c5ccccc5)CC4)c3n2)cc1OC [Example 31, 2-amino-4-[(N-phenylsulfonyl)-piperazin-1-yl]-6-(3,4-dimethoxy-phenyl)pteridine] | 500 nM | 3000 nM
12 | COc1ccc(-c2cnc3nc(N)nc(N4CCN(C(=O)c5ccc(F)cc5)CC4)c3n2)cc1OC [Example 32, 2-amino-4-[(N-p-fluorobenzoyl)-piperazin-1-yl]-6-(3,4-dimethoxyphenyl)pteridine] | 400 nM | 400 nM
13 | COc1ccc(-c2cnc3nc(N)nc(N4CCN(C(=O)N5CCCC5)CC4)c3n2)cc1OC [Example 38, 2-amino-4-[(N-1-pyrrolidinylcarbonyl)-piperazin-1-yl]-6-(3,4-dimethoxy-phenyl)pteridine] | 60 nM | 300 nM
14 | COc1ccc(-c2cnc3nc(N)nc(N4CCN(C(=O)N(c5ccccc5)c5ccccc5)CC4)c3n2)cc1OC [Example 39, 2-amino-4-[(N-diphenylcarbamoyl)-piperazin-1-yl]-6-(3,4-dimethoxy-phenyl)pteridine] | 800 nM | 700 nM
15 | COc1ccc(-c2cnc3nc(N)nc(N4CCN(C(=O)c5ccccc5OC)CC4)c3n2)cc1OC [Example 42, 2-amino-4-[N-(2-methoxybenzoyl)-piperazin-1-yl]-6-(3,4-dimethoxy-phenyl)pteridine] | 100 nM | 400 nM
